In patent US10533000B2, “Metabotrophic glutamate receptor 5 modulators and methods of use thereof” (Sunovion Pharmaceuticals, Inc., priority 2011, dated 2020):

The molecules below were run against mGluR5 (Homo sapiens, UniProt P41594) (assay: mGluR5 positive allosteric modulator (PAM) functional assay).
Format: cell-based

Sequence of mGluR5 (P41594 21-1212): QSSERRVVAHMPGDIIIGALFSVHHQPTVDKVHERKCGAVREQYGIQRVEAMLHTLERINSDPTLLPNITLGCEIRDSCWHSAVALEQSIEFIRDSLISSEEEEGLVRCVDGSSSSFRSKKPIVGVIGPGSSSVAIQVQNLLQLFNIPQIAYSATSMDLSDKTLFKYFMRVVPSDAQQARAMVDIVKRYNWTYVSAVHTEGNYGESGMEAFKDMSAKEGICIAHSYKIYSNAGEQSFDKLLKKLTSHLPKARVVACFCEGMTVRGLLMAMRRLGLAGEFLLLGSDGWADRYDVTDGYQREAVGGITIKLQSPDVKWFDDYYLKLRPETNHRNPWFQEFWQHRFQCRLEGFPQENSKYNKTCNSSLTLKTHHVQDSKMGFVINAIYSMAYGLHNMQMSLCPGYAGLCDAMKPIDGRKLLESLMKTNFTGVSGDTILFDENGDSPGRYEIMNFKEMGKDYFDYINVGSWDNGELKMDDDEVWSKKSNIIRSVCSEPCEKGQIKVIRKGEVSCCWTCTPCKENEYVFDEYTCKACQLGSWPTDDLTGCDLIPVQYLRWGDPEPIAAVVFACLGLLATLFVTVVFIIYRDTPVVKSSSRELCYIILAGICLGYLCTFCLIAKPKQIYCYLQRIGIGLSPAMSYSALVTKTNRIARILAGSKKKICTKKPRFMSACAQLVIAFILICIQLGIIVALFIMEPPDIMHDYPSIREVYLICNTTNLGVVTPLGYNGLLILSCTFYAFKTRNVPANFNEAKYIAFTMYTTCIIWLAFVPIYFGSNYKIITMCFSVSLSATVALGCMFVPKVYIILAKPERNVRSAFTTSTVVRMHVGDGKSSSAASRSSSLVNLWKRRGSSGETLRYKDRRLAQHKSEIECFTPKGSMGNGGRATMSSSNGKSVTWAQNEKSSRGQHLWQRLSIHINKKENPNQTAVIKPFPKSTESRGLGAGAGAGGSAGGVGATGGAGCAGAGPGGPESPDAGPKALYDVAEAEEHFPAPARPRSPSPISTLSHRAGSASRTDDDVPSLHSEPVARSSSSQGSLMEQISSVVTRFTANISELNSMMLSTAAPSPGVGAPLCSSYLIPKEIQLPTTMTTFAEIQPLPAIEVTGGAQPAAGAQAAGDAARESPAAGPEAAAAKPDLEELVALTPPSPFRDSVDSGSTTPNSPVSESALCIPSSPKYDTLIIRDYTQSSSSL

SMILES	EC50 [nM]
C(#Cc1ccc(-c2noc(C3CCCN3)n2)nc1)c1ccccc1 (stereo not shown) [Compound 165, 3-(5-(phenylethynyl)pyridin-2-yl)-5-(pyrrolidin-2-yl)-1,2,4-oxadiazole]	300 to 1000
Clc1cccc(C#Cc2ccc(-c3noc(C4CCCN4)n3)nc2)c1 (stereo not shown) [Compound 166, 3-(5-((3-chlorophenyl)ethynyl)pyridin-2-yl)-5-(pyrrolidin-2-yl)-1,2,4-oxadiazole]	300 to 1000
CN1C[C@H](F)C[C@@H]1c1nc(-c2ccc(C#Cc3ccccn3)cn2)no1 [Compound 169, 5-((2R,4R)-4-fluoro-1-methylpyrrolidin-2-yl)-3-(5-(pyridin-2-ylethynyl)pyridin-2-yl)-1,2,4-oxadiazole]	300 to 1000
CN1CC[C@@H]2C[C@@]21c1nc(-c2ccc(C#Cc3ccccn3)cn2)no1 [Compound 172, 5-((1S,5R)-2-methyl-2-azabicyclo[3.1.0]hexan-1-yl)-3-(5-(pyridin-2-ylethynyl)pyridin-2-yl)-1,2,4-oxadiazole]	300 to 1000
C(#Cc1ccccn1)c1ccc(-c2noc(C3CC4CCN3C4)n2)nc1 (stereo not shown) [Compound 174, 5-(1-azabicyclo[2.2.1]heptan-2-yl)-3-(5-(pyridin-2-ylethynyl)pyridin-2-yl)-1,2,4-oxadiazole]	100 to 300

The next lines start with the values.

EC50 [nM]	SMILES
≤ 30	CCC(C)c1nc(-c2ccc(C#Cc3ccncc3)cn2)no1 (stereo not shown) [Compound 158, 5-(sec-butyl)-3-(5-(pyridin-4-ylethynyl)pyridin-2-yl)-1,2,4-oxadiazole]
100 to 300	COC(C)c1nc(-c2ccc(C#Cc3ccncc3)cn2)no1 (stereo not shown) [Compound 159, 5-(1-methoxyethyl)-3-(5-(pyridin-4-ylethynyl)pyridin-2-yl)-1.2.4-oxadiazole]
30 to 100	CCC(CC)c1nc(-c2ccc(C#Cc3ccncc3)cn2)no1 [Compound 160, 5-(pentan-3-yl)-3-(5-(pyridin-4-ylethynyl)pyridin-2-yl)-1,2,4-oxadiazole]
30 to 100	CCC(OC)c1nc(-c2ccc(C#Cc3ccncc3)cn2)no1 (stereo not shown) [Compound 161, 5-(1-methoxypropyl)-3-(5-(pyridin-4-ylethynyl)pyridin-2-yl)-1,2,4-oxadiazole]
30 to 100	C(#Cc1ccccn1)c1ccc(-c2noc(C34CCCN3CCC4)n2)nc1 [Compound 170, 5-(hexahydro-1H-pyrrolizin-7a-yl)-3-(5-(pyridin-2-ylethynyl)pyridin-2-yl)-1,2,4oxadiazole]
